According to US20150087627A1, “COMBINATION OF KINASE INHIBITORS AND USES THEREOF” (Intellikine LLC, priority 2011, published 2015):
Read-outs that look alike come from different tables or passages of the source.

Legend:
Assay type in all cases: biochemical
[1] = biological target: T1, PI3K α (p110α/p85α) (Homo sapiens, UniProt P42336); test: PI 3-Kinase (human) HTRF assay, PI3K α; conditions: read-out: PI3K α IC50
T1 construct: purchased Upstate / Millipore Corporation

[2] = biological target: T2, PI3K γ (p110γ) (Homo sapiens, UniProt P48736); test: PI 3-Kinase (human) HTRF assay, PI3K γ; conditions: read-out: PI3K γ IC50
T2 construct: purchased Upstate / Millipore Corporation
T2 sequence (P48736 whole entry): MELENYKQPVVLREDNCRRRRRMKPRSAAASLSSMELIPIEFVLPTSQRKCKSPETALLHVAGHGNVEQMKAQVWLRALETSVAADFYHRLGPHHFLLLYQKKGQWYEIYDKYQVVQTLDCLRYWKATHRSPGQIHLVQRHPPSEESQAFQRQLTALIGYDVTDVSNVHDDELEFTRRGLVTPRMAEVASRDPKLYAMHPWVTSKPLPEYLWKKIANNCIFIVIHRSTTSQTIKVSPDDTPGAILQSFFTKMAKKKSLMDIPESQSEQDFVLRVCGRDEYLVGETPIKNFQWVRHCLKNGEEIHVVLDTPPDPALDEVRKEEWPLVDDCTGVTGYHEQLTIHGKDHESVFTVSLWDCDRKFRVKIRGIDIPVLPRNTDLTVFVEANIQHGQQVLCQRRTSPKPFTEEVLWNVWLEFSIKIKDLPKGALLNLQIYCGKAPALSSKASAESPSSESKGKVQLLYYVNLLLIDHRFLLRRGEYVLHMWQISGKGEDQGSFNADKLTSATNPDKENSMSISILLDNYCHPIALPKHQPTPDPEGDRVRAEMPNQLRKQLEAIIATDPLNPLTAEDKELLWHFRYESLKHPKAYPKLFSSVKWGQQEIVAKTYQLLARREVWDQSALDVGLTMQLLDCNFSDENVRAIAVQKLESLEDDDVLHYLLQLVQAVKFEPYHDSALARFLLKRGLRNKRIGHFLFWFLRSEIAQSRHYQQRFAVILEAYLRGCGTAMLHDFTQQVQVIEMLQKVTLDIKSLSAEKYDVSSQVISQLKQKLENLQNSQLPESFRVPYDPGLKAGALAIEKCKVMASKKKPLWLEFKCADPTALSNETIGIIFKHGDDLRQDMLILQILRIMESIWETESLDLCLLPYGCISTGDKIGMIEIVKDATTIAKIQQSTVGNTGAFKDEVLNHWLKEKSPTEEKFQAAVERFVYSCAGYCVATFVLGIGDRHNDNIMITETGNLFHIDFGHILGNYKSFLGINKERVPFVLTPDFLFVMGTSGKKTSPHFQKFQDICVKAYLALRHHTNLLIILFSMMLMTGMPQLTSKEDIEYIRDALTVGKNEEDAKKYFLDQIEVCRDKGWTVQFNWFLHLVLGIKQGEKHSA

[3] = biological target: T3, PI3K δ (Homo sapiens, UniProt O00329); test: PI 3-Kinase (human) HTRF assay, PI3K δ; conditions: read-out: PI3K δ IC50
T3 construct: purchased Upstate / Millipore Corporation
T3 sequence (O00329 whole entry): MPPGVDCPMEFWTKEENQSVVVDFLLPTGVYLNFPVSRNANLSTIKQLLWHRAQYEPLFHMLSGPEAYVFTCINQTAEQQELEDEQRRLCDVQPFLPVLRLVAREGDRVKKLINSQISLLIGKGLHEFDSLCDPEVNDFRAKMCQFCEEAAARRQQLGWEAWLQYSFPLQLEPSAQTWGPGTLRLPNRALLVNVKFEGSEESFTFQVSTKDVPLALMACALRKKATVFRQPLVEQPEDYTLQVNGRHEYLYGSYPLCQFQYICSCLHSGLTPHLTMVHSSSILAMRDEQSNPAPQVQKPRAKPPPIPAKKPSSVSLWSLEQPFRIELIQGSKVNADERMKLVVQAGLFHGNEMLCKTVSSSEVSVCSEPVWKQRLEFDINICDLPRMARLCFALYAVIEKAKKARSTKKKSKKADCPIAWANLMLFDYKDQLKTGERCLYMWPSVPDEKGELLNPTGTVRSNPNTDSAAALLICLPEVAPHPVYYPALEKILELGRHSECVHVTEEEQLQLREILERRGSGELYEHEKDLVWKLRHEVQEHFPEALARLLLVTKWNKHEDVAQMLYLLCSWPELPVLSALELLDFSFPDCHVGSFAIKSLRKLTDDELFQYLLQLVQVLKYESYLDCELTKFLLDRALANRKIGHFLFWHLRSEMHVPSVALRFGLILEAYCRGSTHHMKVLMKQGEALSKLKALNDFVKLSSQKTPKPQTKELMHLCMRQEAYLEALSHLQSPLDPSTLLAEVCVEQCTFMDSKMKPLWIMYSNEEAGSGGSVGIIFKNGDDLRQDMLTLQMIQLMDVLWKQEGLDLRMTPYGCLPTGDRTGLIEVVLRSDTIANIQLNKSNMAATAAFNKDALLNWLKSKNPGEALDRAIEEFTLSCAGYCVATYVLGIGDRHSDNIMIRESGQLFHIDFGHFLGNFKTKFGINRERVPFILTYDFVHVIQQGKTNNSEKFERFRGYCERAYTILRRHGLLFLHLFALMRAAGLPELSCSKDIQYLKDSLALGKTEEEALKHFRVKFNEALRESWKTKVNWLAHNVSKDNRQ
T3 sequence (P27986 whole entry partner): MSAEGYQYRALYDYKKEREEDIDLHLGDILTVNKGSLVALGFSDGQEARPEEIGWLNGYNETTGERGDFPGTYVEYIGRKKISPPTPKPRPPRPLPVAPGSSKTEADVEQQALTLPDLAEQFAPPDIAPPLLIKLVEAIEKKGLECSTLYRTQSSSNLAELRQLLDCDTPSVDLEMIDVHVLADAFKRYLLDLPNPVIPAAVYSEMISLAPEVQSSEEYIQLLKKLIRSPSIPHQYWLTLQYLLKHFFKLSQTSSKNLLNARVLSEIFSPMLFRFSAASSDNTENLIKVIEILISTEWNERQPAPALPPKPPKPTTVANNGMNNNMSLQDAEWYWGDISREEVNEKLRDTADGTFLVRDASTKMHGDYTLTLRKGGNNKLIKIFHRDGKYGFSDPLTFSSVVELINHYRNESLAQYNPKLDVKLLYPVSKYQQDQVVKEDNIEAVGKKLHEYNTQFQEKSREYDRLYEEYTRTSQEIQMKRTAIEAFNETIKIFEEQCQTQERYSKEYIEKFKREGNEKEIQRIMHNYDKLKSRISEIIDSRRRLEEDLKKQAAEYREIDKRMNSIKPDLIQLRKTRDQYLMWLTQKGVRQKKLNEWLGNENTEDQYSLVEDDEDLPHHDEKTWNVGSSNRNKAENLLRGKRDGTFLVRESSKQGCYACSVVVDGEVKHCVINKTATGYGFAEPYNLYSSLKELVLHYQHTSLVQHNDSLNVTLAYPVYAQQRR

[4] = biological target: T4, PI3K β (p110β/p85α) (Homo sapiens, UniProt P42338); test: PI 3-Kinase (human) HTRF assay, PI3K β; conditions: read-out: PI3K β IC50
T4 construct: purchased Upstate / Millipore Corporation
T4 sequence (P42338 whole entry): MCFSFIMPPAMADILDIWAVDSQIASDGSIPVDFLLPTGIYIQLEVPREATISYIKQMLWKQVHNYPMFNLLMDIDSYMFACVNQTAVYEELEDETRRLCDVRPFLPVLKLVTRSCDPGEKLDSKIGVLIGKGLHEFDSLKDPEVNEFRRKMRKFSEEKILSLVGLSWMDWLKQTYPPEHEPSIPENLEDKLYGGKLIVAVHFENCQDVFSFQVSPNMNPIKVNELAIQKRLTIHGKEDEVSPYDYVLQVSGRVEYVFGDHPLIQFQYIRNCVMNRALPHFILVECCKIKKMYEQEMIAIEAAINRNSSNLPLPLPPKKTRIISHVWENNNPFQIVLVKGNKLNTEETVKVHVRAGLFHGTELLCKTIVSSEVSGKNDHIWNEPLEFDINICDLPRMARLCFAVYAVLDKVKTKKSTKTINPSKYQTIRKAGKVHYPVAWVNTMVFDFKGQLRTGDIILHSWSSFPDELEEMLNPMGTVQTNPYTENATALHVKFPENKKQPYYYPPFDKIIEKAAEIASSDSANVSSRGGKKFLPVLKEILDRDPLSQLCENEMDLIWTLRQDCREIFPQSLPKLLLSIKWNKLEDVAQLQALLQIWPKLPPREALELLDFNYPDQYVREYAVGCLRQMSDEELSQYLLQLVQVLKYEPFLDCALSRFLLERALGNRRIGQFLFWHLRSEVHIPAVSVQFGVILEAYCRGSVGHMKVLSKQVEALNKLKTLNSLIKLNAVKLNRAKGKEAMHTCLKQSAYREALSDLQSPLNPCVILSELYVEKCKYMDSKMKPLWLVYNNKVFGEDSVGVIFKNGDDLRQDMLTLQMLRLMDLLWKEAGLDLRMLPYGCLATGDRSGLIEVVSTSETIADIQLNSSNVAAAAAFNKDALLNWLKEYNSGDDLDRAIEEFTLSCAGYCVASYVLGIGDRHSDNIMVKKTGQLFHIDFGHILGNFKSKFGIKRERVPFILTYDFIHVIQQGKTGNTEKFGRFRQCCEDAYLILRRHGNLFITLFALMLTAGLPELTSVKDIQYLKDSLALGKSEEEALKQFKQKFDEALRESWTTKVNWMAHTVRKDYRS
T4 sequence (P27986 whole entry partner): as the sequence (P27986 whole entry partner) above

T1 sequence (P42336 whole entry): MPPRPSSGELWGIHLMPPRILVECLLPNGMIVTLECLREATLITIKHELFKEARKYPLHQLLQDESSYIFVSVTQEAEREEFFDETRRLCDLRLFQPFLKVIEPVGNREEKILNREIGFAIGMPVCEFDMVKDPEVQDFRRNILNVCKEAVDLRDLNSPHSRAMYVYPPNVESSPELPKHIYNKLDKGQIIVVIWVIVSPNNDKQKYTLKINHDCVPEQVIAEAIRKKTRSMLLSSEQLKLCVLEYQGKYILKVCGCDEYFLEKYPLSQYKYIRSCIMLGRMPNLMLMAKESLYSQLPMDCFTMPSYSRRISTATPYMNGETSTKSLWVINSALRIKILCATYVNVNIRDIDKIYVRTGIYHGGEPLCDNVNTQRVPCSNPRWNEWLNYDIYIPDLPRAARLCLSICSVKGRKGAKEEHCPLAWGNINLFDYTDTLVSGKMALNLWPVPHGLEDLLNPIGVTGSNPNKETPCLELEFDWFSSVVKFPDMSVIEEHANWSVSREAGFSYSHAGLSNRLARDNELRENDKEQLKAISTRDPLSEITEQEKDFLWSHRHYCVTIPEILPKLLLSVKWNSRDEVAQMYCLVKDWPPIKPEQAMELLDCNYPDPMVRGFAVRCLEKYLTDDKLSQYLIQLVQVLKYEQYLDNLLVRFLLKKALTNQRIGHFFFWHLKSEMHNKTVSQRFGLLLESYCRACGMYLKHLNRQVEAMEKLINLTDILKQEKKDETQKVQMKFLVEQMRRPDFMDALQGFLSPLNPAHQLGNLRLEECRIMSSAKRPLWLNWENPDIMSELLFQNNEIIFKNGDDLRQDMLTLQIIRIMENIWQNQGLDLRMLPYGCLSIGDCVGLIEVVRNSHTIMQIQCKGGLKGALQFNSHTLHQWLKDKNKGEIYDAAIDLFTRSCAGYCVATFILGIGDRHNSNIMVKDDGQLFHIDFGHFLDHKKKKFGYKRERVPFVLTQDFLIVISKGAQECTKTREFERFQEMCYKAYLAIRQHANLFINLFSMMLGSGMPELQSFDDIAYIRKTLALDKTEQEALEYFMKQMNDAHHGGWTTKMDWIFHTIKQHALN
T1 sequence (P27986 whole entry partner): as the sequence (P27986 whole entry partner) above

| IC50 [1] | IC50 [3] | IC50 [4] | IC50 ([1]; Table 4 (PI3K α inhibitors)) | IC50 ([4]; Table 4 (PI3K α inhibitors)) | IC50 ([3]; Table 4 (PI3K α inhibitors)) | IC50 ([2]; Table 4 (PI3K α inhibitors)) | SMILES | IC50 [2] |
| --- | --- | --- | --- | --- | --- | --- | --- | --- |
| > 10 µM | > 10 µM | > 10 µM |  |  |  |  | Cc1c(-c2ccc3oc(N)nc3c2)ccc2ncc(C(=O)N3CCOCC3)n12 [Compound 349] |  |
| < 1 µM | < 10 µM | < 10 µM |  |  |  |  | Cc1cc(-c2ccc3oc(N)nc3c2)cc2c(C(=O)N3CCOCC3)cnn12 [Compound 357] |  |
| < 0.1 µM | < 1 µM | < 1 µM |  |  |  |  | Nc1nc2cc(-c3ccc4ncc(N5CC(N6CCOCC6)C5)nc4c3)cc(Cl)c2o1 [Compound 358] |  |
| < 10 µM | > 10 µM | > 10 µM |  |  |  |  | Nc1nc2cc(-c3ccc4ncc(C(=O)N5CCOCC5)n4c3)c(Cl)cc2o1 [Compound 370] |  |
| < 1 µM | < 10 µM | < 10 µM |  |  |  |  | Nc1nc2cc(-c3ccc4ncc(C(=O)N5CCOCC5)n4c3)c(F)cc2o1 [Compound 372] |  |
| < 0.1 µM | < 10 µM | < 10 µM |  |  |  |  | Nc1nc2cc(-c3ccc4ncc(N5CC[C@@H](N6CCOCC6)C5)nc4c3)ccc2o1 [Compound 376] |  |
| < 0.1 µM | > 10 µM | < 10 µM |  |  |  |  | Nc1nc2cc(-c3ccc4ncc(C(=O)N5CCOCC5)n4c3)cnc2o1 [Compound 400] |  |
| > 10 µM | > 10 µM | > 10 µM |  |  |  |  | Nc1nc2cc(-c3nc4cc(-c5cccnc5)cnc4s3)ccc2o1 [Compound 402] |  |
| > 10 µM | > 10 µM | > 10 µM |  |  |  |  | Nc1nc2cc(-c3ccc4nc(N)c(N5CC(N6CCOCC6)C5)nc4c3)ccc2o1 [Compound 404] |  |
| > 10 µM | > 10 µM | > 10 µM |  |  |  |  | CS(=O)(=O)Nc1nc2cc(-c3ccc4ncc(C(=O)N5CCOCC5)n4c3)ccc2o1 [Compound 405] |  |
| < 10 µM | > 10 µM | < 10 µM |  |  |  |  | CNc1nc2cc(-c3ccc4ncc(C(=O)N5CCOCC5)n4c3)ccc2o1 [Compound 406] |  |
| < 0.1 µM | < 0.1 µM | < 1 µM |  |  |  |  | COc1ncc(-c2ccc3ncc(C(=O)N4CCOCC4)n3c2)cc1NS(=O)(=O)c1cccc(F)c1 [Compound 423] |  |
| < 10 µM | > 10 µM | < 10 µM |  |  |  |  | CC(=O)Nc1n[nH]c2cc(-c3ccc4oc(N)nc4c3)ccc12 [Compound 430] |  |
| < 1 µM | < 10 µM | < 1 µM |  |  |  |  | Nc1nc2ccc(-c3cc(F)c4oc(N)nc4c3)cc2o1 [Compound 433] |  |
| < 0.1 µM | < 1 µM | < 0.1 µM |  |  |  |  | Nc1nc2cc(-c3ccc4nc(N)sc4c3)cc(F)c2o1 [Compound 436] |  |
| < 10 µM | > 10 µM | > 10 µM |  |  |  |  | Nc1nc2cc(-c3cc(F)c4ncc(C(=O)N5CCOCC5)n4c3)ccc2o1 [Compound 438] |  |
| > 10 µM | > 10 µM | > 10 µM |  |  |  |  | O=C(c1cnc2ccc(-c3cccc(S(=O)(=O)Nc4cc(F)ccc4F)c3)cn12)N1CCOCC1 [Compound 441] |  |
| < 10 µM | > 10 µM | > 10 µM |  |  |  |  | O=C(c1cnc2ccc(-c3cncc(S(=O)(=O)Nc4ccccc4)c3)cn12)N1CCOCC1 [Compound 447] |  |
| < 0.1 µM | < 0.1 µM | < 1 µM |  |  |  |  | O=C(c1cnc2ccc(-c3cnc(Cl)c(NS(=O)(=O)c4ccccc4)c3)cn12)N1CCOCC1 [Compound 451] |  |
| < 0.1 µM | < 0.1 µM | < 1 µM |  |  |  |  | O=C(c1cnc2ccc(-c3cnc(Cl)c(NS(=O)(=O)c4ccccc4F)c3)cn12)N1CCOCC1 [Compound 452] |  |

| IC50 [1] | IC50 [3] | IC50 [4] | IC50 ([1]; Table 4 (PI3K α inhibitors)) | IC50 ([4]; Table 4 (PI3K α inhibitors)) | IC50 ([3]; Table 4 (PI3K α inhibitors)) | IC50 ([2]; Table 4 (PI3K α inhibitors)) | SMILES | IC50 [2] |
| --- | --- | --- | --- | --- | --- | --- | --- | --- |
| < 10 µM | > 10 µM | > 10 µM |  |  |  |  | COc1ccc(-c2ccc3ncc(C(=O)N4CCOCC4)n3c2)cc1NS(=O)(=O)c1ccccc1 [Compound 455] |  |
| < 1 µM | > 10 µM | > 10 µM |  |  |  |  | O=C(c1cnc2ccc(-c3ccc(Cl)c(NS(=O)(=O)c4ccccc4)c3)cn12)N1CCOCC1 [Compound 459] |  |
| < 0.1 µM | < 10 µM | < 10 µM |  |  |  |  | CN(C(=O)c1cnc2ccc(-c3ccc4oc(N)nc4c3)cn12)C1CCOCC1 [Compound 472] |  |
| > 10 µM | > 10 µM | > 10 µM |  |  |  |  | Nc1n[nH]c2cc(-c3ccc4ncc(C(=O)N5CCOCC5)n4c3)ccc12 [Compound 487] |  |
| < 1 µM | > 10 µM | < 10 µM |  |  |  |  | Nc1nc2c(-c3ccc4ncc(C(=O)N5CCOCC5)n4c3)cccc2o1 [Compound 496] |  |
| < 0.1 µM | < 1 µM | < 10 µM |  |  |  |  | C[C@@H]1CN(C2CN(C(=O)c3cnc4ccc(-c5ccc6oc(N)nc6c5)cn34)C2)CCN1 [Compound 511] |  |
| < 0.1 µM | < 1 µM | < 10 µM |  |  |  |  | C[C@H]1CN(C2CN(C(=O)c3cnc4ccc(-c5ccc6oc(N)nc6c5)cn34)C2)CCN1C [Compound 512] |  |
| < 1 µM | > 10 µM | > 10 µM |  |  |  |  | CC1(C)COCCN1C(=O)c1cnc2ccc(-c3ccc4oc(N)nc4c3)cn12 [Compound 514] |  |
| < 0.1 µM | < 0.1 µM | < 0.1 µM |  |  |  |  | CC(C)N1CCC(n2cnc3ccc(-c4cnc(Cl)c(NS(=O)(=O)c5ccccc5)c4)cc3c2=O)CC1 [Compound 521] |  |
| > 10 µM | > 10 µM | > 10 µM |  |  |  |  | Nc1nc2cc(-c3cnc4ccc(C(=O)N5CCOCC5)cn34)ccc2o1 [Compound 541] |  |
|  |  |  | < 0.1 µM | < 1 µM | > 10 µM |  | Nc1nc2cc(-c3ccc4ncc(N5CCOCC5)nc4n3)ccc2o1 [Compound 553] |  |
|  |  |  | < 0.1 µM | < 1 µM | < 1 µM |  | CCOC(=O)N1CCN(c2cnc3ccc(-c4ccc5oc(N)nc5c4)nc3n2)CC1 [Compound 557] |  |
|  |  |  | < 0.1 µM |  |  | < 0.1 µM | CCOC(=O)N1CC=C(c2cnc3ccc(-c4ccc5oc(N)nc5c4)nc3n2)CC1 [Compound 560] |  |
|  |  |  | < 0.1 µM |  |  | < 0.1 µM | C[C@@H]1COCCN1c1cnc2ccc(-c3ccc4oc(N)nc4c3)nc2n1 [Compound 565] |  |
|  |  |  |  |  |  | < 1 µM | Nc1nc2cc(-c3ccc4ncc(N5CC6CCC(C5)O6)cc4n3)ccc2o1 [Compound 579] |  |
|  |  |  | < 0.1 µM |  |  | < 1 µM | C[C@@H](N)C(=O)N1CCN(c2cnc3ccc(-c4ccc5oc(N)nc5c4)nc3n2)CC1 [Compound 582] |  |
|  |  |  | < 0.1 µM |  |  | < 1 µM | Nc1nc2cc(-c3ccc4ncc(N5CCC(O)CC5)cc4n3)ccc2o1 [Compound 613] |  |
|  |  |  | < 0.1 µM | > 10 µM | > 10 µM |  | C[C@H]1COCCN1C1CN(c2cnc3ccc(-c4ccc5oc(N)nc5c4)nc3c2)C1 [Compound 619] |  |
|  |  |  | < 0.1 µM |  |  | < 1 µM | Nc1nc2cc(-c3ccc4ncc(N5CC(N6CCN(C7CC7)CC6)C5)cc4n3)ccc2o1 [Compound 621] |  |
|  |  |  |  |  | > 10 µM | > 10 µM | CN1CCN(c2ccc3ncc(-c4ccc5oc(N)nc5c4)cc3n2)CC1 [Compound 631] |  |

| SMILES | IC50 [1] | IC50 [3] | IC50 [4] | IC50 ([1]; Table 4 (PI3K α inhibitors)) | IC50 ([4]; Table 4 (PI3K α inhibitors)) | IC50 ([3]; Table 4 (PI3K α inhibitors)) | IC50 ([2]; Table 4 (PI3K α inhibitors)) | IC50 [2] |
| --- | --- | --- | --- | --- | --- | --- | --- | --- |
| Nc1nc2cc(-c3ccc4nccc(CCN5CCOCC5)c4c3)ccc2o1 [Compound 27] | < 1 µM | < 10 µM |  |  |  |  |  | < 0.1 µM |
| Nc1nc2cc(-c3ccc4nccc(N5CCOCC5)c4c3)ccc2o1 [Compound 28] | < 0.1 µM | < 1 µM |  |  |  |  |  | < 0.1 µM |
| Nc1nc2cc(-c3ccc4ncnc(N5CCC(O)CC5)c4c3)ccc2o1 [Compound 29] | < 0.1 µM | < 0.1 µM |  |  |  |  |  | < 0.1 µM |
| Cc1cc2oc(N)nc2cc1-c1ccc2ncc(C(=O)N3CCOCC3)n2c1 [Compound 352] | > 10 µM | > 10 µM | > 10 µM |  |  |  |  |  |
| Cc1c(-c2ccc3oc(N)nc3c2)ccc2ncc(N3CC(N4CCNCC4)C3)nc12 [Compound 386] | < 0.1 µM | > 10 µM | > 10 µM |  |  |  |  |  |
| COCCN1CCN(c2cnc3ccc(-c4ccc5oc(N)nc5c4)cc3n2)CC1 [Compound 387] | < 0.1 µM | > 10 µM | < 1 µM |  |  |  |  |  |
| COc1ncc(-c2ccc3ncc(C(=O)N4CCOCC4)n3c2)cc1N [Compound 414] | < 10 µM | > 10 µM | > 10 µM |  |  |  |  |  |
| Nc1nc2cc(-c3ccc4[nH]nc(N)c4c3)ccc2o1 [Compound 427] | > 10 µM | > 10 µM | > 10 µM |  |  |  |  |  |
| CC(=O)Nc1n[nH]c2ccc(-c3ccc4oc(N)nc4c3)cc12 [Compound 431] | > 10 µM | > 10 µM | > 10 µM |  |  |  |  |  |
| CC(=O)Nc1nc2ccc(-c3cc(F)c4oc(N)nc4c3)cc2s1 [Compound 434] | < 0.1 µM | < 0.1 µM | < 0.1 µM |  |  |  |  |  |
| O=C(c1cnc2ccc(-c3cccc(S(=O)(=O)Nc4ccccc4)c3)cn12)N1CCOCC1 [Compound 440] | > 10 µM | > 10 µM | > 10 µM |  |  |  |  |  |
| COc1ccc(-c2ccc3ncc(C(=O)N4CCOCC4)n3c2)cc1S(=O)(=O)Nc1ccccc1 [Compound 444] | < 10 µM | > 10 µM | > 10 µM |  |  |  |  |  |
| Nc1nc2cc(-c3ccc4ncc(C(=O)N5CC[C@@H](F)C5)n4c3)ccc2o1 [Compound 475] | < 0.1 µM | < 10 µM | > 10 µM |  |  |  |  |  |
| Nc1nc2cc(-c3ccc4ncc(C(=O)N5CC[C@@H](n6cccn6)C5)n4c3)ccc2o1 [Compound 477] | < 0.1 µM | < 10 µM | > 10 µM |  |  |  |  |  |
| Nc1nc2cc(-c3ccc4ncc(C(=O)N5CC[C@H](n6cccn6)C5)n4c3)ccc2o1 [Compound 478] | < 0.1 µM | < 1 µM | < 10 µM |  |  |  |  |  |
| C[C@@H]1CCCN1C(=O)c1cnc2ccc(-c3ccc4oc(N)nc4c3)cn12 [Compound 481] | < 0.1 µM | < 10 µM | < 10 µM |  |  |  |  |  |
| Nc1n[nH]c2c(-c3ccc4ncc(C(=O)N5CCOCC5)n4c3)cccc12 [Compound 490] | > 10 µM | > 10 µM | > 10 µM |  |  |  |  |  |
